Test results reported in patent US9801901B2, “Alginate oligomers for use in overcoming multidrug resistance in bacteria” (priority 2009, dated 2017).
In brackets after ≈: the same amount, converted by molar mass. Like-named read-outs stand apart in the source and are kept apart here. Marks after values point to notes of the source that are not given here.

What was measured:
[1] = tested on: V23 1322 Burkholderia cepacia; experiment: MIC assay, CAMHB with alginate oligomer, no visible growth; type: cell-based
[2] = tested on: Acinetobacter lwoffii (Egypt, V10); experiment: MIC-assay, Mueller-Hinton broth with G-block alginate, 384-well, OD600
[3] = tested on: Acinetobacter baumannii (Egypt, V9); experiment: as above
[4] = tested on: V19 non MDR Acinetobacter baumannii; experiment: MIC assay, CAMHB with M-block alginate oligomer, no visible growth; type: cell-based; settings: Table 7, V19 non MDR Acin. baum
Description: (§1) The study described in Example 1 was repeated with the following strains of Acinetobacter baumannii, antibiotics and M-block alginate oligomer in place of OligoG CF-5/20 as detailed in Table 7. The M-block oligomer is 100% M with a DPn of 15 to 18,

[5] = tested on: PA01 Pseudomonas aeruginosa ATCC 15692; experiment: MIC assay, two-fold antibiotic dilutions in CAMHB with alginate oligomer, no visible growth; type: cell-based; settings: Pseudomonas aeruginosa, ATCC15692, Table 1, PA01, read-out: MIC
[6] = tested on: Acinetobacter lwoffii (6056, V22); experiment: MIC-assay, Mueller-Hinton broth with G-block alginate, 384-well, OD600
MDR Pseudomonas strains = experiment: MIC assay of Example 1, summary over the MDR Pseudomonas strains; type: cell-based, Pseudomonas aeruginosa
V11 5702 (Wales) E. coli = experiment: MIC assay, CAMHB with alginate oligomer, no visible growth; type: cell-based; settings: Table 5, V11 MDR E.coli
[7] = tested on: Acinetobacter baumannii MDR ACB from Libya (V4); experiment: as above; type: cell-based; settings: for effect in combination with alginate oligomers: Example 1, Acinetobacter baumannii isolate; for change of MIC in combination with azithromycin by alginate oligomer: Table 3, MDR Acinetobacter baumannii isolate
Description: The study described in Example 1 was repeated with the following strains of bacteria and antibiotics as detailed in Tables 4, 5 and 6.
as §1

[8] = tested on: V10 (Egypt) Acinetobacter lwoffii; experiment: as above; type: cell-based; settings: Table 5, V10 MDR Acin. lwoff
[9] = tested on: Pseudomonas aeruginosa (MDR 301, PSA, V2); experiment: MIC-assay, Mueller-Hinton broth with G-block alginate, 384-well, OD600; settings: Pseudomonas aeruginosa, Table 8, V2
[10] = tested on: Klebsiella pneumoniae KP05 506 from India (V3); experiment: MIC assay, CAMHB with alginate oligomer, no visible growth; type: cell-based; settings: Klebsiella pneumoniae, Table 1, V3 KP05 506, read-out: MIC
[11] = Burkholderia cepacia, Table 5, V23 MDR Burk cep, OligoCF-5/20 0G, read-out: MIC
[12] = Table 5, V23 MDR Burk cep, OligoCF-5/20 +2% G
[13] = Table 5, V23 MDR Burk cep, OligoCF-5/20 +6% G
[14] = Table 5, V23 MDR Burk cep, OligoCF-5/20 +10% G
[15] = Table 9, G-block (OligoCF-5/20) 0%
[16] = Table 9, G-block (OligoCF-5/20) 2%
[17] = Table 9, G-block (OligoCF-5/20) 6%
[18] = Table 9, G-block (OligoCF-5/20) 10%
[19] = Acinetobacter baumannii, Table 1, V4 ACB (Libya), OligoCF-5/20 0G, read-out: MIC
[20] = Acinetobacter baumannii, Table 1, V4 ACB (Libya), OligoCF-5/20 +10% G, read-out: MIC

## O=C(O)c1cn(C2CC2)c2cc(N3CCNCC3)c(F)cc2c1=O [Ciprofloxacin]
[1]; [11]
  MIC: 64 µg/mL (≈ 193 µM)
[1]; [12]
  MIC: 64 µg/mL (≈ 193 µM)
[1]; [13]
  MIC: 64 µg/mL (≈ 193 µM)
[1]; [14]
  MIC: 32^† μg/ml
[2]; [15]
  MIC: 0.063 µg/mL (≈ 0.19 µM)
[2]; [16]
  MIC: 0.031 µg/mL (≈ 0.0936 µM)
[2]; [17]
  MIC: 0.031 µg/mL (≈ 0.0936 µM)
[2]; [18]
  MIC: 0.031 µg/mL (≈ 0.0936 µM)
[3]; [15]
  MIC: > 8 µg/mL
[3]; [16]
  MIC: > 8 µg/mL
[3]; [17]
  MIC: 8 µg/mL (≈ 24.1 µM)
[3]; [18]
  MIC: 8 µg/mL (≈ 24.1 µM)
[4]; M-block oligomer 0M
  MIC: 64 µg/mL (≈ 193 µM)
[4]; M-block oligomer +2% M
  MIC: 32 µg/mL (≈ 96.6 µM)
[4]; M-block oligomer +6% M
  MIC: 16 µg/mL (≈ 48.3 µM)
[5]; OligoCF-5/20 +2% G
  MIC: 0.0625 µg/mL (≈ 0.189 µM)
[5]; OligoCF-5/20 +6% G
  MIC: 0.0625 µg/mL (≈ 0.189 µM)
[5]; OligoCF-5/20 +10% G
  MIC: 0.0312 µg/mL (≈ 0.0943 µM)
[6]; [15]
  MIC: < 2 µg/mL
[6]; [16]
  MIC: < 2 µg/mL
[6]; [17]
  MIC: < 2 µg/mL
[6]; [18]
  MIC: < 2 µg/mL
MDR Pseudomonas strains
  effectiveness when used in combination with the alginate oligomers: more effective
V11 5702 (Wales) E. coli; OligoCF-5/20 +2% G
  MIC: 64^† μg/ml
[7]; [19]
  MIC: 64 µg/mL (≈ 193 µM)
[7]; Acinetobacter baumannii, Table 1, V4 ACB (Libya), OligoCF-5/20 +2% G, read-out: MIC
  MIC: 32 µg/mL (≈ 96.6 µM)
[7]; Acinetobacter baumannii, Table 1, V4 ACB (Libya), OligoCF-5/20 +6% G, read-out: MIC
  MIC: 16 µg/mL (≈ 48.3 µM)
[7]; [20]
  MIC: 16 µg/mL (≈ 48.3 µM)
[7]; Acinetobacter baumannii, Table 7, V4 MDR Acin baum (Libya), M-block oligomer 0M, read-out: MIC
  MIC: 64 µg/mL (≈ 193 µM)
[7]; Acinetobacter baumannii, Table 7, V4 MDR Acin baum (Libya), M-block oligomer +2% M, read-out: MIC
  MIC: 64 µg/mL (≈ 193 µM)
[7]; Acinetobacter baumannii, Table 7, V4 MDR Acin baum (Libya), M-block oligomer +6% M, read-out: MIC
  MIC: 64 µg/mL (≈ 193 µM)
[7]
  effect in combination with alginate oligomers: more positive effect
  change of MIC in combination with azithromycin by alginate oligomer: reduced

## CC(C)(O/N=C(\C(=O)N[C@@H]1C(=O)N2C(C(=O)[O-])=C(C[n+]3ccccc3)CS[C@H]12)c1csc(N)n1)C(=O)O [Ceftazidime]
[1]; [11]
  MIC: 64 µg/mL (≈ 117 µM)
[1]; Burkholderia cepacia, Table 6, V23, Experiment 1 (18-03-10), OligoCF-5/20 0G, read-out: MIC
  MIC: 128 µg/mL (≈ 234 µM)
[1]; Burkholderia cepacia, Table 6, V23, Experiment 2 (18-03-10), OligoCF-5/20 0G, read-out: MIC
  MIC: 64 µg/mL (≈ 117 µM)
[1]; Burkholderia cepacia, Table 6, V23, Experiment 3 (19-03-10), OligoCF-5/20 0G, read-out: MIC
  MIC: 64 µg/mL (≈ 117 µM)
[1]; [12]
  MIC: 32^† μg/ml
[1]; [13]
  MIC: 8 µg/mL (≈ 14.6 µM)
[1]; [14]
  MIC: <0.5^† μg/ml
[1]; Table 6, V23, Experiment 1 (18-03-10), OligoCF-5/20 +2% G
  MIC: 64^† μg/ml
[1]; Table 6, V23, Experiment 1 (18-03-10), OligoCF-5/20 +6% G
  MIC: 16^† μg/ml
[1]; Table 6, V23, Experiment 1 (18-03-10), OligoCF-5/20 +10% G
  MIC: 8^† μg/ml
[1]; Table 6, V23, Experiment 2 (18-03-10), OligoCF-5/20 +2% G
  MIC: 64 µg/mL (≈ 117 µM)
[1]; Table 6, V23, Experiment 2 (18-03-10), OligoCF-5/20 +6% G
  MIC: 32^† μg/ml
[1]; Table 6, V23, Experiment 2 (18-03-10), OligoCF-5/20 +10% G
  MIC: 32^† μg/ml
[1]; Table 6, V23, Experiment 3 (19-03-10), OligoCF-5/20 +2% G
  MIC: 32^† μg/ml
[1]; Table 6, V23, Experiment 3 (19-03-10), OligoCF-5/20 +6% G
  MIC: 16^† μg/ml
[1]; Table 6, V23, Experiment 3 (19-03-10), OligoCF-5/20 +10% G
  MIC: 4^† μg/ml
[2]; [15]
  MIC: 2 µg/mL (≈ 3.66 µM)
[2]; [16]
  MIC: 1 µg/mL (≈ 1.83 µM)
[2]; [17]
  MIC: 0.25 µg/mL (≈ 0.457 µM)
[2]; [18]
  MIC: 0.25 µg/mL (≈ 0.457 µM)
[3]; [15]
  MIC: > 16 µg/mL
[3]; [16]
  MIC: > 16 µg/mL
[3]; [17]
  MIC: > 16 µg/mL
[3]; [18]
  MIC: > 16 µg/mL
[5]; OligoCF-5/20 0G
  MIC: < 1 µg/mL
[5]; OligoCF-5/20 +2% G
  MIC: < 1 µg/mL
[5]; OligoCF-5/20 +6% G
  MIC: < 1 µg/mL
[5]; OligoCF-5/20 +10% G
  MIC: < 1 µg/mL
[6]; [15]
  MIC: 8 µg/mL (≈ 14.6 µM)
[6]; [16]
  MIC: 4 µg/mL (≈ 7.32 µM)
[6]; [17]
  MIC: 2 µg/mL (≈ 3.66 µM)
[6]; [18]
  MIC: 2 µg/mL (≈ 3.66 µM)
[8]; Acinetobacter lwoffii, OligoCF-5/20 0G, read-out: MIC
  MIC: 2 µg/mL (≈ 3.66 µM)
[8]; OligoCF-5/20 +2% G
  MIC: 2 µg/mL (≈ 3.66 µM)
[8]; OligoCF-5/20 +6% G
  MIC: <0.5^† μg/ml
[8]; OligoCF-5/20 +10% G
  MIC: <0.5^† μg/ml
[9]; G-block (OligoCF-5/20) 0%
  MIC: 0.5 µg/mL (≈ 0.915 µM)
[9]; G-block (OligoCF-5/20) 6%
  MIC: 0.25 µg/mL (≈ 0.457 µM)
[10]; OligoCF-5/20 0G
  MIC: > 1020 µg/mL
[10]; OligoCF-5/20 +2% G
  MIC: > 1020 µg/mL
[10]; OligoCF-5/20 +6% G
  MIC: > 1020 µg/mL
[10]; OligoCF-5/20 +10% G
  MIC: > 1020 µg/mL
MDR Pseudomonas strains
  effectiveness when used in combination with the alginate oligomers: more effective
V11 5702 (Wales) E. coli; Escherichia coli, OligoCF-5/20 0G, read-out: MIC
  MIC: 128 µg/mL (≈ 234 µM)
V11 5702 (Wales) E. coli; OligoCF-5/20 +2% G
  MIC: 64^† μg/ml
V11 5702 (Wales) E. coli; OligoCF-5/20 +6% G
  MIC: 32^† μg/ml
V11 5702 (Wales) E. coli; OligoCF-5/20 +10% G
  MIC: 64^† μg/ml
[7]; [19]
  MIC: 512 µg/mL (≈ 937 µM)
[7]; [20]
  MIC: 256 µg/mL (≈ 468 µM)
[7]
  effect in combination with alginate oligomers: more positive effect
  change of MIC in combination with azithromycin by alginate oligomer: reduced
[7]; Table 1, V4 ACB (Libya), OligoCF-5/20 +6% G
  MIC: 512 µg/mL (≈ 937 µM)
